Measurements taken from article PMC7714403 (JCI Insight, 2020).

How the values were obtained:
[1] = biological target: T1, ABL1 (Homo sapiens, UniProt P00519); test: KdELECT binding assay
T1 construct: purchased Eurofins DiscoverX

[2] = biological target: T2, TLK1 (Homo sapiens, UniProt Q9UKI8); test: KiNativ, OCI cells live cell; format: cell-based; settings: 2 h
T2 sequence (Q9UKI8 1-766): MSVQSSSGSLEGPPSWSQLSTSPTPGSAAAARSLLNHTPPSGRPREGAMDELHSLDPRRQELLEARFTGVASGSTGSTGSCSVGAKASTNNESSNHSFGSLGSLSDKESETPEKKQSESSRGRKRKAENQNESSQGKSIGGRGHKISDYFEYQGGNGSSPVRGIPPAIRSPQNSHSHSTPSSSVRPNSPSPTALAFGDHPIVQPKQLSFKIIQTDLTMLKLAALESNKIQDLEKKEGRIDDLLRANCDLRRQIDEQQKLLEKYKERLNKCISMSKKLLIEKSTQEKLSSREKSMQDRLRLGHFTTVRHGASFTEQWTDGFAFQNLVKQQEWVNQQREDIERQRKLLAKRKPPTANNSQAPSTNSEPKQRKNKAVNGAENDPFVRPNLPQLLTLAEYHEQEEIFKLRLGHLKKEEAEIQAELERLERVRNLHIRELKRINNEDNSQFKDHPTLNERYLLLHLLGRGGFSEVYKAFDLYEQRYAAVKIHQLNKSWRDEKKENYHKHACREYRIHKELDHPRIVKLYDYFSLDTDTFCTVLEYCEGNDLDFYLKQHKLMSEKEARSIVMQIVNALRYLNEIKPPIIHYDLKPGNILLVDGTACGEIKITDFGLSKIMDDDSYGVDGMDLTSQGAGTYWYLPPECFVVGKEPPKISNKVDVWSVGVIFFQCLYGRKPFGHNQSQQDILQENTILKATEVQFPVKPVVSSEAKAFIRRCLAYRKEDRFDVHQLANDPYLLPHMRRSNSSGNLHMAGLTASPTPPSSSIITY

[3] = biological target: SYK (Homo sapiens, UniProt P43405); test: KiNativ, OCI cells live cell; format: cell-based
[4] = biological target: LCK (Homo sapiens, UniProt P06239); test: KiNativ, OCI cells live cell; format: cell-based; settings: 2 h, labeling site Activation Loop, peptide […]
Sequence of LCK (P06239 whole entry): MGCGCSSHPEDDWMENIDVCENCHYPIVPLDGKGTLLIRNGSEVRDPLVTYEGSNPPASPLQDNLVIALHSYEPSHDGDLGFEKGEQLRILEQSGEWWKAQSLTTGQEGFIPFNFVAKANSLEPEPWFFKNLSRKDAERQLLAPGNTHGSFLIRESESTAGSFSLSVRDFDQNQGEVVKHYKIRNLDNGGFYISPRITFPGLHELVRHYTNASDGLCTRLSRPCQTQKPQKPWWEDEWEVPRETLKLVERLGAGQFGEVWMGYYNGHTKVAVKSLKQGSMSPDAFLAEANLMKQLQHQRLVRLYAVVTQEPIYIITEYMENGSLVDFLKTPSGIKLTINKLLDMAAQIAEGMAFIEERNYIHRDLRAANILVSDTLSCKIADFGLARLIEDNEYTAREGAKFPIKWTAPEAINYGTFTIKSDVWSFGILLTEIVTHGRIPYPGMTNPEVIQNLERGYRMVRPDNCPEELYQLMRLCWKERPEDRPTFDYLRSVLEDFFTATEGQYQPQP

[5] = biological target: DNAPK (Homo sapiens, UniProt P78527); test: KiNativ, OCI cells live cell; format: cell-based; settings: 2 h, labeling site ATP
Sequence of DNAPK (P78527 2-4128 limits assumed): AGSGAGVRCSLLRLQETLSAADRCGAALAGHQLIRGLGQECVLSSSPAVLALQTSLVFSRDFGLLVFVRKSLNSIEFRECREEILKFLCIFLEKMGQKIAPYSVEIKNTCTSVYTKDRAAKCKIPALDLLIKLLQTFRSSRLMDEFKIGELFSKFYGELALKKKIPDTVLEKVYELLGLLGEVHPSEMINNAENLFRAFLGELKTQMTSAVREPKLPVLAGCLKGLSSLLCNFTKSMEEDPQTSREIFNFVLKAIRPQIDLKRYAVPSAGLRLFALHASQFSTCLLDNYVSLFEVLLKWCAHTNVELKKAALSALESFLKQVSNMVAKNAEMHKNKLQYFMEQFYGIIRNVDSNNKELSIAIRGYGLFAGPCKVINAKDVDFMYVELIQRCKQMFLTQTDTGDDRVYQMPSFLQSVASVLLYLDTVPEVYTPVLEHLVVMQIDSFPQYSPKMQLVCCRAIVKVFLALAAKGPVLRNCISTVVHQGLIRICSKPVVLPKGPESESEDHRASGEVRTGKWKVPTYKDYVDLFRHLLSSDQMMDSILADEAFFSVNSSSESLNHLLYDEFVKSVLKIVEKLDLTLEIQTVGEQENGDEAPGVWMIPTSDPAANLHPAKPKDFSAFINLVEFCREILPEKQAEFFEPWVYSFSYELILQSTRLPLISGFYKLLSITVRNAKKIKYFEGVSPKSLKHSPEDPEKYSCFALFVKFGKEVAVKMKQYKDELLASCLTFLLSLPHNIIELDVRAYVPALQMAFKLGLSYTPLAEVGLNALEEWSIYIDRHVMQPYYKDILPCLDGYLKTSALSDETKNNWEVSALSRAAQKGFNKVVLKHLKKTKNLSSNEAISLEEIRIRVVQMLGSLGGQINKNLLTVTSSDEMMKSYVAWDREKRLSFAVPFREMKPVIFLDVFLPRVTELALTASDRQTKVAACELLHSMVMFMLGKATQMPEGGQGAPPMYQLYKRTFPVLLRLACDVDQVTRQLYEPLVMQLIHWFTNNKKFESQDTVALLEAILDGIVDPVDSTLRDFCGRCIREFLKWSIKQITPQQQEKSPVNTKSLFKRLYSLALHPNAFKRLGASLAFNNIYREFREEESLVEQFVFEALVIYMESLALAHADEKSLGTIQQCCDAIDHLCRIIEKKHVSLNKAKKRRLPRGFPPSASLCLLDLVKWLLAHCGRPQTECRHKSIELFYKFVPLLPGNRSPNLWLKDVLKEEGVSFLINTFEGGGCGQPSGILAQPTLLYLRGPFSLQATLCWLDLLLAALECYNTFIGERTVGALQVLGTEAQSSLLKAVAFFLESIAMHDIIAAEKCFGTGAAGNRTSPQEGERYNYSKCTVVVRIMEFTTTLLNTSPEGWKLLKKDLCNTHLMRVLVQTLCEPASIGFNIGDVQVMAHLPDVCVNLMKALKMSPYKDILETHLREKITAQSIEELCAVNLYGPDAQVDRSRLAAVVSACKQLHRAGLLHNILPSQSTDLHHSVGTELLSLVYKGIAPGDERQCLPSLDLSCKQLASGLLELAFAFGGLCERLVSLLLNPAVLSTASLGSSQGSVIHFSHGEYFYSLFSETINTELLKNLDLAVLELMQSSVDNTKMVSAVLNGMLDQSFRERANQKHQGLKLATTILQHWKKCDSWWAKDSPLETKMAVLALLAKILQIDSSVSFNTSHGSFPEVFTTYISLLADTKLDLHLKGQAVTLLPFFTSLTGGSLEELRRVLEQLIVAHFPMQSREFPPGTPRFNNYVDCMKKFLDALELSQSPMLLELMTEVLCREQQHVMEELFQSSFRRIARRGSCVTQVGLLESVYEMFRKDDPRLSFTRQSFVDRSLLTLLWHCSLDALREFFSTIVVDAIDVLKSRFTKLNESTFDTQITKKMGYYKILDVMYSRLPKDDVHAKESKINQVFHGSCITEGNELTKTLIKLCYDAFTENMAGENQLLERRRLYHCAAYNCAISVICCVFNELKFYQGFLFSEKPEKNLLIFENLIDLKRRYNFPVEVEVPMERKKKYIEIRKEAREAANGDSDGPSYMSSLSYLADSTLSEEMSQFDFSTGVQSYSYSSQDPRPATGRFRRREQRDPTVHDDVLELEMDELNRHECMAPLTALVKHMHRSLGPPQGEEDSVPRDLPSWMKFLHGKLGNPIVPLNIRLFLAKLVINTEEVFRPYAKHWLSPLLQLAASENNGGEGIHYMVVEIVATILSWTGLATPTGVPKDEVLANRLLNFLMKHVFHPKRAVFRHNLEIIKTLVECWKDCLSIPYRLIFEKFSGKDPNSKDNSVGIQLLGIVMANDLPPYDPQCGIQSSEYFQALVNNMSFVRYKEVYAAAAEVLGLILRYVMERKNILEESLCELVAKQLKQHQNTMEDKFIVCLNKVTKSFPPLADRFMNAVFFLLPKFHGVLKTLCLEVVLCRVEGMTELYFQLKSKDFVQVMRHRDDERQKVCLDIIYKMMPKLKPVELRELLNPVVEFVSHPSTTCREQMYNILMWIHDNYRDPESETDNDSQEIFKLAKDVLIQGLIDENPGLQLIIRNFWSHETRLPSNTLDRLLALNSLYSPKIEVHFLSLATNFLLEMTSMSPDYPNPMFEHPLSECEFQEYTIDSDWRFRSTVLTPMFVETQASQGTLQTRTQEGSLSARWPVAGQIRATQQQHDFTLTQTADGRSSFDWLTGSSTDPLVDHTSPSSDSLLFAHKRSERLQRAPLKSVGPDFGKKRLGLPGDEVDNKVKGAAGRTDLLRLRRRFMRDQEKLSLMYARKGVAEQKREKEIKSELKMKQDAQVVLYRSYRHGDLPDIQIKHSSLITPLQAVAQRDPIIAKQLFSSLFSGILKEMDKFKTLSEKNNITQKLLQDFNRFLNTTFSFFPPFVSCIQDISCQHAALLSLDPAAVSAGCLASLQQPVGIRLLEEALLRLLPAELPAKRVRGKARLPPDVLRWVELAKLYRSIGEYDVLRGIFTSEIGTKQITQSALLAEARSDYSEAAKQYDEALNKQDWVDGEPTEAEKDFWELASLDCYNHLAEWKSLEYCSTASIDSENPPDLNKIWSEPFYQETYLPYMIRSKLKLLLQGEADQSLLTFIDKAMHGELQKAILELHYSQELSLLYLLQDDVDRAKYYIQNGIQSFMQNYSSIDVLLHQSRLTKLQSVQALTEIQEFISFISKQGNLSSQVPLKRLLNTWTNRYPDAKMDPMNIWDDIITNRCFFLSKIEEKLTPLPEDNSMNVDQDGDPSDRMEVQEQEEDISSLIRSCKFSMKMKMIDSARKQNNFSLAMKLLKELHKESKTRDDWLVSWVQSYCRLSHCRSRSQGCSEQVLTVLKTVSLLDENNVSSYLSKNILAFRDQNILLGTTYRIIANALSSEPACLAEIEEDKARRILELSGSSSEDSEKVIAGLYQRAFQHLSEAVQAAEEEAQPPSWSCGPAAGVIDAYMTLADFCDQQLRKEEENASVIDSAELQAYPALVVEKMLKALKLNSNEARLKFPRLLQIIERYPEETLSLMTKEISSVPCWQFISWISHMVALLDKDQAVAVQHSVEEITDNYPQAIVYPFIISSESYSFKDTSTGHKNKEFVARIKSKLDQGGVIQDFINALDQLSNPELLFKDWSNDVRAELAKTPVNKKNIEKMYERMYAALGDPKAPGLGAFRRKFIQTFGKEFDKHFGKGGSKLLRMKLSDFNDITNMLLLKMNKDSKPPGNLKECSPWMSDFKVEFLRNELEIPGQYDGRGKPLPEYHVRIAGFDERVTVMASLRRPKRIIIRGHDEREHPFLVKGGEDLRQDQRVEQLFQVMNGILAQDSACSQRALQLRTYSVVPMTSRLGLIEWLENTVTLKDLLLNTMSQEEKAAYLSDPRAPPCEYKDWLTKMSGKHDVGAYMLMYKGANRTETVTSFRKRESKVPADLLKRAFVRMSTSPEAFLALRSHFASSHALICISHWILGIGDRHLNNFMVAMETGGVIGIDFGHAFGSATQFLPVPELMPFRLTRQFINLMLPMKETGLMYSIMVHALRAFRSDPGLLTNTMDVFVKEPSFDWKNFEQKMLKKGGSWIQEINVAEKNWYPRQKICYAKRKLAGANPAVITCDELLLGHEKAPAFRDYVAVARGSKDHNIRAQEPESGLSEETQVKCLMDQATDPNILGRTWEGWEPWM

[6] = biological target: CDC2 (Homo sapiens, UniProt P06493); test: KiNativ, OCI cells live cell; format: cell-based; settings: 2 h
Sequence of CDC2 (P06493 whole entry): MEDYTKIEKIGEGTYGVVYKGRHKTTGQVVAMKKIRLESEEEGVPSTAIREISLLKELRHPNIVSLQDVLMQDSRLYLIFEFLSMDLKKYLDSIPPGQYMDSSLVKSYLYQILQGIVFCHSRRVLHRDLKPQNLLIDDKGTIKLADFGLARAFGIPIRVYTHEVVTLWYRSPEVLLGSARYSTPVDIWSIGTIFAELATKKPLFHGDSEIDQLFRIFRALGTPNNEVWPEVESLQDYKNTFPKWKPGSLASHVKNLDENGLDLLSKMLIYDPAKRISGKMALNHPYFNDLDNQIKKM

[7] = biological target: PEK (Homo sapiens, UniProt Q9NZJ5); test: KiNativ, OCI cells live cell; format: cell-based; settings: 2 h, labeling site Lys2, peptide […]
[8] = biological target: PFTAIRE1 (Homo sapiens, UniProt O94921); test: KiNativ, OCI cells live cell; format: cell-based

`CN1CCN(Cc2ccc(Nc3ncc(Cl)c(Nc4ccccc4S(=O)(=O)N(C)C)n3)cc2)CC1` [TP-0903] was tested, and the Kd [1] was under 5 nM, the inhibition at 0.1 µM ([2]; labeling site Lys1, peptide YAAVKIHQLNK) was -15.2% and the inhibition at 0.1 µM ([2]; labeling site Lys2, peptide YLNEIKPPIIHYDLKPGNILLVDGTACGEIK) was -2.5%. It also gave an Inhibition ([3]; labeling site Activation Loop, peptide AQTHGKWPVK) of 39.8%, an Inhibition ([3]; labeling site Activation Loop, peptide ISDFGLSKALR) of 38.5% and an Inhibition ([3]; labeling site Lys1, peptide TVAVKILK) of 37.9%. The inhibition at 0.1 µM [4] was -4.3%, the inhibition at 0.1 µM ([5]; peptide EHPFLVKGGEDLR) was 2.8% and the inhibition at 0.1 µM ([5]; peptide KGGSWIQEINVAEK) was 8.4%. The inhibition at 0.1 µM ([6]; labeling site Lys1, peptide TTGQVVAMKK) was -4.5%, the inhibition at 0.1 µM ([6]; labeling site Lys2, peptide DLKPQNLLIDDK) was -2.5% and the inhibition at 0.1 µM ([6]; labeling site Protein Kinase Domain, peptide KPLFHGDSEIDQLFR) was -37.1%. The inhibition at 0.1 µM [7] was -9.6%, the Inhibition ([8]; labeling site Lys1, peptide LVALKVIR) was 62.2% and the Inhibition ([8]; labeling site Lys2, peptide DLKPQNLLISDTGELK) was 72.4%.
